Assay results reported in US9879002B2, “PDE10 inhibitors and related compositions and methods” (Omeros Corporation, priority 2015, dated 2018).
Converted amounts (≈) assume the structure as drawn. Read-outs that look alike come from different tables or passages of the source.

Assays:
[1] = Solubility assay in simulated Intestinal Fluid pH 7.5; format: physicochemical; settings: fassgf or other biorelevant, kinetic from dmso stock, shaken 24 hours at room temperature, from 10 mM DMSO stock, detection limit approximately 1 μM, read-out: Solubility test results: Conc. (μM), pH 7.5 (IF)
Description: Solubility of each compound was measured by adding 4 μl of a 10 mM DMSO compound stock to 396 μl buffer (either a simulated Gastric Fluid pH 1.2 (0.2% NaCl, 0.7% HCl) or simulated Intestinal Fluid pH 7.5 (0.68% KHPO4, pH with NaOH)). This was shaken for 24 hours at room temperature, spun at 14,000 rpm for 5 minutes, and the supernatant was transferred into a clean eppendorf tube. The absorption spectra of the compound-containing supernatant were measured from 220 to 400 nm and compared with the absorption spectra of a 10 μM acetonitrile stock of the same compound. The concentration of the compound in the supernatant was calculated by comparing the absorbance maximum of the compound in the simulated buffer to that in acetonitrile.

PDE10 [2] = biological target: PDE10 (Homo sapiens, UniProt Q9Y233); test: PDE10 biochemical assay (scintillation proximity assay, [3H]-cGMP substrate)
Description: The phosphodiesterase (PDE) activity was measured using a scintillation proximity assay (SPA) with [^3H]-cGMP as the substrate. Purified PDE10 was stored in 40 mM Tris-Cl (pH 8.0)/100 mM NaCl/0.04% Tween-20/20% Glycerol/3 mM DTT and then used to prepare a 10×PDE solution in 50 mM Tris-Cl (pH 7.5)/8.3 mM MgCl2/1.7 mM EGTA. Assays contained (final concentrations): 50 mM Tris-Cl (pH 7.5)/8.3 mM MgCl2/1.7 mM EGTA/0.5 mg/ml BSA/1% DMSO and 2 ng PDE10 in a final volume of 0.1 mL. Inhibition was evaluated at 8 concentrations in duplicate. Reactions were initiated by addition of enzyme and were terminated after 20 minutes at 30° C. by the addition of 50 μl of SPA beads containing Zn^++. The mixture was shaken, allowed to settle for at least 1 hour, and counted in a Wallac plate counter. Results (net cpm) were fitted to a four parameter logistic model using Excel Solver®.

PDE10 [3] = biological target: T1, PDE10 (Mus musculus, UniProt Q8CA95); settings: cited from Soderling and Beavo 2000; read-out: IC50 (50% inhibitory concentration); cited from earlier work
T1 sequence (Q8CA95 1-790): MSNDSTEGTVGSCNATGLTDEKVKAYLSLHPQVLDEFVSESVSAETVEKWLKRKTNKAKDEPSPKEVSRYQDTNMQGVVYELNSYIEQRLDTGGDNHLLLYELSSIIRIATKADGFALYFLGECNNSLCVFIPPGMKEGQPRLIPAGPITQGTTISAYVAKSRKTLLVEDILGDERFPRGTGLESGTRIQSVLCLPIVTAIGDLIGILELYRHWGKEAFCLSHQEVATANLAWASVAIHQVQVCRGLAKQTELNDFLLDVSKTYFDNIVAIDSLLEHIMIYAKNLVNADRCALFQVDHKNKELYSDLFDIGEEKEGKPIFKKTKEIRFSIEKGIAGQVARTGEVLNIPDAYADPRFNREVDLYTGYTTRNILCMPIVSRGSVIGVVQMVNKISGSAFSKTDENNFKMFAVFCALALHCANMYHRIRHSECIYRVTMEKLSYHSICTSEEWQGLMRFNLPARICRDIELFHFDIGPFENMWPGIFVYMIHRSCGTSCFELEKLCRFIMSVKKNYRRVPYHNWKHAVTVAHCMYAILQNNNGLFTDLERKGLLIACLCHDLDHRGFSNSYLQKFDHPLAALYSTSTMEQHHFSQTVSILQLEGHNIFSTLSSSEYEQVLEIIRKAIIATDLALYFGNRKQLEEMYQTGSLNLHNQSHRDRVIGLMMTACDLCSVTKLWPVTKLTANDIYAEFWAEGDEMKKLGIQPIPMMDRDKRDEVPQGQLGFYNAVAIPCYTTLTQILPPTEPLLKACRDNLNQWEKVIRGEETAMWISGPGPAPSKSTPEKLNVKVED

[4] = SPA, [3H]-cGMP, 20 minutes at 30° C., 8 concentrations in duplicate, read-out: Average IC50
[5] = text statement on the PDE10 biochemical assay, read-out: IC50

Sequence of PDE10 (Homo sapiens, UniProt Q9Y233) (Q9Y233 whole entry): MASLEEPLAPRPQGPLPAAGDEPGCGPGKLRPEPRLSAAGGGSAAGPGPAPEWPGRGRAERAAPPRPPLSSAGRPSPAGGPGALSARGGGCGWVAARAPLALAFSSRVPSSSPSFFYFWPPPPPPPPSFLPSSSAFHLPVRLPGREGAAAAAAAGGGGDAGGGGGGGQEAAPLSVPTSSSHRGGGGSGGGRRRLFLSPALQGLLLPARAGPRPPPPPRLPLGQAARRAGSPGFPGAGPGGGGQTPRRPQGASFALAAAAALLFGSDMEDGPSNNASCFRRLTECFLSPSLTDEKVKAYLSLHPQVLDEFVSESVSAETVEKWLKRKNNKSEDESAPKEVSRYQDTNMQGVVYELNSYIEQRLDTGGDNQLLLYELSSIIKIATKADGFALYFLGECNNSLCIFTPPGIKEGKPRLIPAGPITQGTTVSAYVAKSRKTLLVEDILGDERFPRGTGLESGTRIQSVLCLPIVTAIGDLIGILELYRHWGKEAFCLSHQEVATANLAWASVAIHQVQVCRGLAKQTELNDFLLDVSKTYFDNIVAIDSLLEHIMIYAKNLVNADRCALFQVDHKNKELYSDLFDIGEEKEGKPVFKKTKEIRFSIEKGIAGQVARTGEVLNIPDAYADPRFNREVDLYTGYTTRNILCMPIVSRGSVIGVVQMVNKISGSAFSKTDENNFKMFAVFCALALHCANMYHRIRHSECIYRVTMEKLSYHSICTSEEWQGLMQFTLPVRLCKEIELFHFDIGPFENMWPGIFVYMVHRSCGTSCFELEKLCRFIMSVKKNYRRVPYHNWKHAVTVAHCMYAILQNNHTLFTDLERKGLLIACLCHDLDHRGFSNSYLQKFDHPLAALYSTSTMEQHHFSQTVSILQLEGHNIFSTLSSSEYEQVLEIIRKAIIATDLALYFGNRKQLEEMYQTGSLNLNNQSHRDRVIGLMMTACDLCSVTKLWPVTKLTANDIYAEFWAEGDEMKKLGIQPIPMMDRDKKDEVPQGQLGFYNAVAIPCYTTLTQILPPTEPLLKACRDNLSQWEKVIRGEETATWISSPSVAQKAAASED

Row | SMILES | solubility at 24 h [1] | IC50 (PDE10 [2]; [4]) | IC50 (PDE10 [2]; [5]) | IC50 (PDE10 [3])
1 | CCOC(C(=O)c1ccc(-c2cc(O)c(Cl)c(OC)c2)o1)c1ccc(-c2nnc(C)s2)cc1 (centres unmarked) [Compound 1, 1-[5-(4-chloro-3-hydroxy-5-methoxyphenyl)furan-2-yl]-2-ethoxy-2-[4-(5-methyl-1,3,4-thiadiazol-yl)phenyl]ethanone] | 2.5 µM (≈ 1.21 µg/mL) | 37.7 nM | ≤ 1000 nM | –
2 | CCOC(C(=O)c1ccc(-c2cc(OC)c(Cl)c(OC)c2)o1)c1ccc(-c2nnc(CO)s2)cc1 (centres unmarked) [Compound 2, 1-(5-(4-chloro-3,5-dimethoxyphenyl)furan-2-yl)-2-ethoxy-2-(4-(5-(hydroxymethyl)-1,3,4-thiadiazol-2-yl)phenyl)ethan-1-one] | 5.8 µM (≈ 2.99 µg/mL) | 1.3 nM | ≤ 1000 nM | –
3 | CCOC(C(=O)c1ccc(-c2cc(OC)c(Cl)c(O[C@H]3O[C@H](C(=O)O)[C@@H](O)[C@H](O)[C@H]3O)c2)o1)c1ccc(-c2nnc(C)s2)cc1 (stereo partly drawn) [Compound 3, (2S,3S,4S,5R,6R)-6-(2-chloro-5-(5-(2-ethoxy-2-(5-methyl-1,3,4-thiadiazol-2-yl)phenyl)acetyl)furan-2-yl-methoxyphenoxy)-3,4,5-trihydroxytetrahydro-2H-pyran-2-carboxylic acid] | 78.3 µM (≈ 51.8 µg/mL) | 652 nM | ≤ 1000 nM | –
4 | CCOC(c1ccc(-c2nnc(C)s2)cc1)C(O)c1ccc(-c2cc(OC)c(Cl)c(OC)c2)o1 (centres unmarked) [Compound 4, 1-(5-(4-chloro-3,5-dimethoxyphenyl)furan-2-yl)-2-ethoxy-2-(4-(5-methyl-1,3,4-thiadiazol-2-yl)phenyl)ethan-1-ol] | 2.5 µM (≈ 1.25 µg/mL) | 127 nM | ≤ 1000 nM | –
5 | CCOC(C(=O)c1ccc(-c2cc(OC)c(Cl)c(OC)c2)o1)c1ccc(-c2nnc(C)s2)cc1 (centres unmarked) [Compound A, 1-(5-(4-chloro-3,5-dimethoxyphenyl)furan-2-yl)-2-ethoxy-2-(4-(5-methyl-l,3,4-thiadiazol-2-yl)phenyl)ethan-1-one, reference compound] | < 1 µM | – | – | –
6 | CC(C)Cn1c(=O)n(C)c(=O)c2[nH]cnc21 [IBMX] | – | – | – | 2600 nM
